“Also recorded” adds a separate entry of the source. Structures can show the parent of a compound that is named as a salt.
Assays:
[1] = system: α4β2* nicotinic acetylcholine receptors (nAChRs); details: cited from earlier work
[2] = system: methamphetamine self-administration; details: animal models; cited from earlier work
VMAT2 = VMAT2 (Rattus norvegicus, UniProt Q01827); test: [3H]-DA uptake inhibition assay in isolated synaptic vesicles; details: for fold more potent in inhibiting [3H]-DA uptake than in binding to the DTBZ binding site: uptake vs DTBZ binding; for fold less potent in [3H]-DA uptake inhibition than comparator: 7 vs 2, 26 vs 25; for fold more potent in [3H]-DA uptake inhibition than S-configured analogs: 18 and 19 vs 14 and 15
[3] = target: DTBZ binding site on VMAT2 (Rattus norvegicus, UniProt Q01827); test: [3H]DTBZ binding assay in rat brain synaptic vesicles; details: for fold less potent at DTBZ binding site than comparator: 7 vs 2, 26 vs 25
water solubility = format: physicochemical; details: qualitative statement

Sequence of VMAT2 (Q01827 whole entry): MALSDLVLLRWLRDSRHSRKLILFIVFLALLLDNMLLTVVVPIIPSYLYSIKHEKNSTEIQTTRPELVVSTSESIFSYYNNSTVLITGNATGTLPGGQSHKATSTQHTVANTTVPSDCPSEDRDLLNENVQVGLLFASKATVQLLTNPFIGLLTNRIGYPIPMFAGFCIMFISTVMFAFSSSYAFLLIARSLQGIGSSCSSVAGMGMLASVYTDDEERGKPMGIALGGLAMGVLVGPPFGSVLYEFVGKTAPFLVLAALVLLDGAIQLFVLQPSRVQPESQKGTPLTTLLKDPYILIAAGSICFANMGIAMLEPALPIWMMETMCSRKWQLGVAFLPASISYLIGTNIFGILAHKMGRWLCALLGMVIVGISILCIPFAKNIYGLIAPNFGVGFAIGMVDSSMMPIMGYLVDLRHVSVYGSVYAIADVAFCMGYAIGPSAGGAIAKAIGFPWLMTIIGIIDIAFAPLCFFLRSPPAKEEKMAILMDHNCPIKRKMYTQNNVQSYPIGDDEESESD
Sequence of DTBZ binding site on VMAT2 (Q01827 whole entry): as above

In the case of `CN1[C@@H](CC(=O)c2ccccc2)CCC[C@H]1C[C@H](O)c1ccccc1` [Compound 1, lobeline], the “affinity for α4β2* nAChRs” value [1] is listed as “high potency”.

In the case of `CN1[C@@H](CCc2ccccc2)CCC[C@H]1CCc1ccccc1` [Compound 2, cis-N-methyl-2,6-diphenethylpiperidine], the “affinity for α4β2* nAChRs” value [1] is given as “little affinity” and the effect on self-administration [2] is given as “decreases methamphetamine self-administration; also recorded: does not itself support self-administration”.

In the case of `c1ccc(CC[C@H]2CCC[C@@H](CCc3ccccc3)N2)cc1` [Compound 3, reference compound], the “fold more potent in inhibiting [3H]-DA uptake than in binding to the DTBZ binding site” value (“fold more potent in inhibiting” below) (VMAT2) is reported as “about 100 fold”.

With `c1ccc(CC[C@@H]2CC[C@H](CCc3ccccc3)N2)cc1` [Compound 6, cis-2,5-Di-(2-phenethyl)-pyrrolidine hydrochloride] the “fold more potent in inhibiting” value (VMAT2) was “about 100 fold”.

For `CN1[C@H](CCc2ccccc2)CC[C@@H]1CCc1ccccc1` [Compound 7, 1-Methyl-cis-2,5-di-(2-phenethyl)-pyrrolidine hydrochloride], the “fold less potent at DTBZ binding site than comparator” value [3] was “about 10 fold”, the “fold less potent in [3H]-DA uptake inhibition than comparator” value (VMAT2) was 10 fold and the “fold more potent in inhibiting” value (VMAT2) was “about 30 fold”.

With `c1ccc(CC[C@H]2CC[C@H](CCc3ccccc3)N2)cc1` [Compound 10, (2S,5S)-di-(2-phenethyl)-pyrrolidine hydrochloride] the “fold more potent at DTBZ binding site than N-methyl derivative” value ([3]; 10 vs 11) was “about 10 fold”.

For `OC[C@@H](c1ccccc1)N1[C@H](CCc2ccccc2)CC[C@@H]1CCc1ccccc1` [Compound 18, (2′R)-2-(2S,5R)-2,5-Di-(2-phenethyl)-tetrahydro-1H-1-pyrrolyl-2-phenylethan-1-ol], the “fold more potent in [3H]-DA uptake inhibition than S-configured analogs” value (VMAT2) was “about 10 fold”.

With `OC[C@@H](c1ccccc1)N1[C@@H](CCc2ccccc2)CC[C@@H]1CCc1ccccc1` [Compound 19, (2′R)-2-(2S,5S)-2,5-Di(2-phenethyl)-tetrahydro-1H-1-pyrrolyl-2-phenylethan-1-ol] the “fold more potent in [3H]-DA uptake inhibition than S-configured analogs” value (VMAT2) was “about 10 fold”.

For `c1ccc(C[C@H]2CC[C@@H](Cc3ccccc3)N2)cc1` [Compound 22, cis-2,5-Di(2-benzyl)-pyrrolidine hydrochloride], the water solubility (water solubility) was “water-soluble”.

With `c1ccc(CCC[C@@H]2CC[C@H](CCCc3ccccc3)N2)cc1` [Compound 25, Cis-2,5-di(3-phenylpropyl)-pyrrolidine hydrochloride] the “fold more potent in inhibiting” value (VMAT2) was “about 20 fold”.

With `CN1[C@H](CCCc2ccccc2)CC[C@@H]1CCCc1ccccc1` [Compound 26, 1-Methyl-cis-2,5-di(3-phenylpropyl)-pyrrolidine hydrochloride] the “fold less potent at DTBZ binding site than comparator” value [3] was 10 fold, the “fold less potent in [3H]-DA uptake inhibition than comparator” value (VMAT2) was “about 10 fold” and the “fold more potent in inhibiting” value (VMAT2) was “about 20 fold”.
